Measurements taken from US20240207245A1, “METHOD FOR INHIBITING METASTASIS OF TRIPLE-NEGATIVE BREAST CANCER USING ROSOXACIN” (National Yang Ming Chiao Tung University, priority 2022, published 2024).

Assays:
Type in all cases: cell-based, human
[1] = tested on: highly metastatic breast cancer cell line (HMB cells); test: Transwell Matrigel cell invasion assay, LPS-induced, HMB cells; conditions: LPS 1 μM + quinolone antibiotic 1 μM, 24 hours, compared with control group H2 (LPS only), FIG. 1
Protocol: (§1) In addition, the highly metastatic breast cancer cell line (abbreviated as HMB cells) used in the following experiments was obtained according to the following preparation processes: the MDA-MB-231 cells (2.5×10^6 cells) were injected into the mammary fat pad of a severe combined immune deficient (SCID) mice (purchased from BioLasco Taiwan Co., Ltd; 4 weeks old, with a body weight of approximately 20 g), and the triple-negative breast cancer cells metastasized to the lung of the SCID mice were harvested after 12 weeks. Next, the triple-negative breast cancer cells (2.5×10^6 cells) thus obtained were injected into the mammary fat pad of another SCID mice, and the HMB cells metastasized to the lung of the another SCID mice were harvested after 8 weeks.
The HMB cells prepared in section 1 of “General Experimental Materials” were divided into 8 groups, namely, two control groups (i.e., control groups H1 and H2), one experimental group (i.e., experimental group H), and five comparative groups (i.e., comparative groups H1 to H5). In addition, the MDA-MB-231 cells prepared in section 1 of “General Experimental Materials” were divided into three groups, namely, two control groups (i.e., control groups M1 and M2) and one experimental group (i.e., experimental group M).
Each group of the cells was seeded at a concentration of 1×10^5 cells per well into respective permeable Transwell® insert (Corning Inc.) for a 24-well plate.
Thereafter, the Transwell® inserts were placed into the 24-well plate that contained 0.6 mL of DMEM supplemented with 10% FBS in each well, followed by cultivation in a humidified incubator (37° C., 5% CO2, 95% relative humidity) for 24 hours.
Subsequently, the culture medium in each Transwell® insert was removed, and the respective Transwell® insert was washed with phosphate-buffered saline (PBS). The cells migrating through the polycarbonate membrane and attaching to the bottom side of the polycarbonate membrane were subjected to a fixation treatment with a 4% formaldehyde solution (in PBS) at room temperature for 15 minutes. Then, the non-migrating cells were removed using a cotton swab, followed by conducting staining using a 1% crystal violet solution according to techniques well-known to those skilled in the art. The number of the stained cells was counted under a Leica DMI3000 B inverted microscope (Leica Microsystems, Wetzlar, Germany) at 100× magnification, followed by analysis using Image-Pro Software (version 6.0).
The cell invasion percentage (%) of each group was calculated by substituting the thus obtained number of stained cells into the following Equation (I):
[formula] • where A=cell invasion percentage (%) • B=number of stained cells in respective group • C=number of stained cells in the control group H1 or the control group M1
(§2) The data thus obtained were analyzed according to the method described in section 1 of “General Procedures”.

MDA-MB-231 cells = test: Transwell Matrigel cell invasion assay, LPS-induced, MDA-MB-231 cells; conditions: LPS 1 μM + rosoxacin 1 μM, 24 hours, compared with control group M2 (LPS only), FIG. 2
Source text: Human breast cancer cell line MDA-MB-231 (ATCC HTB-26) was purchased from American Type Culture Collection (ATCC, Manassas, Va., USA).
The HMB cells prepared in section 1 of “General Experimental Materials” were divided into 8 groups, namely, two control groups (i.e., control groups H1 and H2), one experimental group (i.e., experimental group H), and five comparative groups (i.e., comparative groups H1 to H5). In addition, the MDA-MB-231 cells prepared in section 1 of “General Experimental Materials” were divided into three groups, namely, two control groups (i.e., control groups M1 and M2) and one experimental group (i.e., experimental group M). […]
Subsequently, the culture medium in each Transwell® insert was removed, and the respective Transwell® insert was washed with phosphate-buffered saline (PBS). […] The number of the stained cells was counted under a Leica DMI3000 B inverted microscope (Leica Microsystems, Wetzlar, Germany) at 100× magnification, followed by analysis using Image-Pro Software (version 6.0).
The cell invasion percentage (%) of each group was calculated by substituting the thus obtained number of stained cells into the following Equation (I): […]
as §2

[2] = tested on: highly metastatic breast cancer cell line (HMB cells); test: Tumor-sphere formation assay, LPS-induced, HMB cells; conditions: LPS 1 μM + rosoxacin 1 μM, 21 days, compared with control group H2 (LPS only), FIG. 3
Protocol: as §1
The sphere formation medium used in this example was prepared by supplementing Gibco DMEM/F-12 medium with the ingredients shown in Table 3.
The HMB cells prepared in section 1 of “General Experimental Materials” were divided into three groups, namely, two control groups (i.e., control groups H1 and H2) and one experimental group (i.e., experimental group H). […]
The number of tumor spheres was counted under a Leica DMI3000 B inverted microscope (Leica Microsystems, Wetzlar, Germany) at 100× magnification.
as §2

Row | SMILES | cell invasion percentage [1] | cell invasion percentage (MDA-MB-231 cells) | number of tumor spheres [2]
1 | C[C@H]1NCc2cc(-c3ccc4c(=O)c(C(=O)O)cn(C5CC5)c4c3OC(F)F)ccc21 [Garenoxacin] | substantially similar to that determined in the control group H2 | – | –
2 | CCn1cc(C(=O)O)c(=O)c2ccc(-c3ccncc3)cc21 [rosoxacin, 1-ethyl-4-oxo-7-(4-pyridyl)-1,4-dihydroquinoline-3-carboxylic acid] | significantly lower than that determined in the control group H2 | significantly lower than that determined in the control group M2 | significantly lower than that determined in the control group H2
3 | CCn1cc(C(=O)O)c(=O)c2cc(F)c(N3CCNCC3)cc21 [Norfloxacin] | substantially similar to that determined in the control group H2 | – | –
4 | COc1c(N2CCNC(C)C2)c(F)cc2c(=O)c(C(=O)O)cn(C3CC3)c12 (stereo not shown) [Gatifloxacin] | substantially similar to that determined in the control group H2 | – | –
5 | NC1CCN(c2c(F)cc3c(=O)c(C(=O)O)cn(C4CC4)c3c2Cl)C1 (stereo not shown) [Clinafloxacin] | significantly higher than that determined in the control group H2 | – | –
